From patent US5336763A, “Trisazo dye and dye composition containing the same” (Orient Chemical Industries, Ltd., priority 1992, dated 1994)
Read-outs that look alike come from different tables or passages of the source.

Tests used:
[1] = background; cited from earlier work
[2] = test system: strains TA98; assay type: cell-based
Description: Regarding various specimen solutions respectively containing trisazo dyes obtained in Examples 1 to 11 to the present invention and dyes of Comparative Examples 1 to 3, the number of mutant colonies was determined using strains TA98. 2. When the ratio is less than 2, it is "negative" and, when the ratio is more than 2, it is "positive", and the results are shown in Table. 1.

Compound: Nc1ccc(N=Nc2ccc(N=Nc3c(S(=O)(=O)[O-])cc4cc(S(=O)(=O)[O-])c(N=Nc5ccc(N=Nc6ccc(N)cc6N)cc5)c(O)c4c3N)cc2)c(N)c1.[Na+].[Na+] [C.I. Direct Black 19]
- Ames test [1]: false positive or positive

Compound: Cc1cc(-c2ccc(N=Nc3c(S(=O)(=O)[O-])cc4cc(S(=O)(=O)[O-])c(N=Nc5ccccc5)c(O)c4c3N)c(C)c2)ccc1N=Nc1ccc(N)cc1N.[Na+].[Na+] [C.I. Direct Black 154]
- Ames test [1]: false positive or positive

Compound: Nc1ccc(N=Nc2ccc(Oc3cccc(Oc4ccc(N=Nc5cc(S(=O)(=O)O)c6cc(S(=O)(=O)O)c(N=Nc7ccccc7)c(O)c6c5N)cc4)c3)cc2)c(O)c1 [Ex. 9]
- Ames test: ratio of number of colonies to control ([2]; 20 μg/plate, with S-9): 1.05
- Ames test: ratio of number of colonies to control ([2]; 20 μg/plate, without S-9): 0.85
- Ames test: ratio of number of colonies to control ([2]; 78 μg/plate, with S-9): 1.00
- Ames test: ratio of number of colonies to control ([2]; 78 μg/plate, without S-9): 0.65
- Ames test: ratio of number of colonies to control ([2]; 313 μg/plate, with S-9): 1.16
- Ames test: ratio of number of colonies to control ([2]; 313 μg/plate, without S-9): 0.75
- Ames test: ratio of number of colonies to control ([2]; 1250 μg/plate, with S-9): 1.00
- Ames test: ratio of number of colonies to control ([2]; 1250 μg/plate, without S-9): 0.60
- Ames test: ratio of number of colonies to control ([2]; 5000 μg/plate, with S-9): 0.53
- Ames test: ratio of number of colonies to control ([2]; 5000 μg/plate, without S-9): 1.15
- AMES evaluation ([2]; strains TA98): Negative (When the ratio is less than 2, it is "negative")

Compound: C.I. Direct Black 168
- Ames test [1]: false positive or positive
